Test results from patent US20230167088A1, “1-PYRAZINYLPYRAZOLYL-3-OXYALKYL ACIDS AND THEIR DERIVATIVES, AND THEIR USE FOR CONTROL OF UNDESIRED PLANT GROWTH” (BAYER AKTIENGESELLSCHAFT, priority 2020, published 2023).

Key:
ALOMY = experiment: Herbicidal post-emergence action 1a (greenhouse pots, visual rating); format: in vivo, Alopecurus myosuroides; conditions: rated visually about 3 weeks after treatment, 100% = plants have died, 0% = like control plants
Procedure, shortened: (§1)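 Weeds and crops sown in sandy loam in greenhouse pots were sprayed post-emergence at the one-leaf stage (2–3 weeks after sowing) with WP or EC formulations plus 0.5% additive at 600 l/ha water, 320 and/or 80 g/ha. About 3 weeks later damage was rated visually against untreated controls (0% = no effect, 100% = dead).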

AVEFA [1] = experiment: as above; format: in vivo, Avena fatua; conditions: rated visually about 3 weeks after treatment, 100% = plants have died, 0% = like control plants
Procedure, shortened: as §1

SETVI [2] = experiment: as above; format: in vivo, Setaria viridis; conditions: rated visually about 3 weeks after treatment, 100% = plants have died, 0% = like control plants
Procedure, shortened: as §1

ABUTH = experiment: as above; format: in vivo, Abutilon theophrasti; conditions: dosage 320 g/ha, visual rating about 3 weeks after treatment
Procedure, shortened: as §1

AVEFA [3] = experiment: Herbicidal pre-emergence action 2a (greenhouse pots, visual scoring); format: in vivo, Avena fatua; conditions: dosage 320 g/ha, visual scoring after about 3 weeks
Procedure, shortened: (§2)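 Pots of covered seed were sprayed pre-emergence at 320 and/or 80 g/ha. Roughly three weeks of greenhouse growth preceded visual scoring in percent versus untreated controls.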

DIGSA = experiment: as above; format: in vivo, Digitaria sanguinalis; conditions: dosage 320 g/ha, visual scoring after about 3 weeks
Procedure, shortened: as §2

SETVI [4] = experiment: as above; format: in vivo, Setaria viridis; conditions: dosage 320 g/ha, visual scoring after about 3 weeks vs untreated controls
Procedure, shortened: as §2

VIOTR = experiment: as above; format: in vivo, Viola tricolor; conditions: dosage 320 g/ha, visual scoring after about 3 weeks vs untreated controls
Procedure, shortened: as §2

VERPE = experiment: as above; format: in vivo, Veronica persica; conditions: dosage 320 g/ha, visual scoring after about 3 weeks vs untreated controls
Procedure, shortened: as §2

POAAN = experiment: Herbicidal pre-emergence action 2b (doubly sown, 1280 g/ha); format: in vivo, Poa annua; conditions: doubly sown pots, dosage 1280 g/ha, visual scoring after about 3 weeks
Procedure, shortened: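 Read-out: visual percentage damage relative to untreated controls, scored after roughly 3 weeks in the greenhouse, where 100% means plants died and 0% equals control. Seeds were sown two species per pot in sandy loam and covered before the compounds, formulated as WP or EC with 0.5% additive, were sprayed onto the soil at 600 L/ha.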

harmful plants = experiment: Herbicidal pre-emergence action 2a, summary across species; format: in vivo; conditions: Tables B1 to B15 (320 g/ha and/or 80 g/ha)
Description: a) Seeds of monocotyledonous and dicotyledonous weed plants and crop plants are placed in plastic or organic plant pots and covered with soil. The compounds of the invention, formulated in the form of wettable powders (WP) or as emulsion concentrates (EC), are then applied onto the surface of the covering soil as aqueous suspension or emulsion with addition of 0.5% additive at a water application rate of 600 1/ha (converted). After the treatment, the pots are placed in a greenhouse and kept under good growth conditions for the trial plants. After about 3 weeks, the effect of the preparations is scored visually in comparison with untreated controls as percentages. For example, 100% activity=the plants have died, 0% activity=like control plants.
Tables B1 to B15 below show the effects of selected compounds of the general formula (I) according to Tables 1 and 2 on various harmful plants and an application rate corresponding to 320 g/ha and/or 80 g/ha, which were obtained by the experimental procedure mentioned above.
For example, compound nos. I-07, I-08, I-11, I-12, I-13, I-16, I-17, I-20, I-36, I-37, I-39, I-45, I-46, I-48, I-52 and I-53 in the pre-emergence method have very good action (80% to 100% herbicidal activity) against harmful plants such as Alopecurus myosuroides, Amaranthus retroflexus, Digitaria sanguinalis, Lolium rigidum, Polygonum convolvulus, Setaria viridis, Veronica persica and Viola tricolor at an application rate of 0.32 kg of active substance per hectare.

PHBPU = experiment: Herbicidal post-emergence action 1a (greenhouse pots, visual rating); format: in vivo, Pharbitis purpurea; conditions: visual rating about 3 weeks after treatment
Procedure, shortened: as §1

MATIN = experiment: Herbicidal pre-emergence action 2a (greenhouse pots, visual scoring); format: in vivo, Matricaria inodora; conditions: dosage 320 g/ha, visual scoring after about 3 weeks vs untreated controls
Procedure, shortened: as §2

SMILES	Post-emergence action against ALOMY in % (ALOMY; Dosage 80 g/ha) [%]	Post-emergence action against ALOMY in % (ALOMY; Dosage 320 g/ha) [%]	Post-emergence action against AVEFA in % (AVEFA [1]; Dosage 80 g/ha) [%]	Post-emergence action against AVEFA in % (AVEFA [1]; Dosage 320 g/ha) [%]	Post-emergence action against SETVI in % (SETVI [2]; Dosage 320 g/ha) [%]	Post-emergence action against ABUTH in % (ABUTH) [%]	Pre-emergence action against AVEFA in % (AVEFA [3]) [%]	Pre-emergence action against DIGSA in % (DIGSA) [%]	Pre-emergence action against SETVI in % (SETVI [4]) [%]	Pre-emergence action against VIOTR in % (VIOTR) [%]	Pre-emergence action against VERPE in % (VERPE) [%]	Pre-emergence action at 1280 g/ha against POAAN in % (POAAN) [%]	herbicidal efficacy against harmful plants in the case of pre-emergence treatment (in words) (harmful plants)	Post-emergence action against PHBPU in % (PHBPU; dosage 80 g/ha) [%]	Post-emergence action against PHBPU in % (PHBPU; dosage 320 g/ha) [%]	Post-emergence action against SETVI in % (SETVI [2]; Dosage 80 g/ha) [%]	Pre-emergence action against MATIN in % (MATIN) [%]
COC(=O)C(C)Oc1nn(-c2cnccn2)c(-c2ccnc(F)c2)c1Cl (racemic) [Example I-05]	100	100	90	100	80	80	80	100	90	100	100	100	good herbicidal efficacy				
COC(=O)C(C)Oc1nn(-c2cnccn2)c(-c2ccnc(F)c2)c1Br (racemic) [Example I-10]	90	90	80	90	80		90	100	100	80		100					
COC(=O)C(C)Oc1nn(-c2cnccn2)c(-c2ccc(F)nc2)c1Br (racemic) [Example I-12]	90	90	100	100	80	80	90	100	100	100	80	100	good herbicidal efficacy	80	90		
COC(=O)C(C)Oc1nn(-c2cnccn2)c(-c2ccc(F)c(F)c2)c1C#N (racemic) [Example I-22]	90	100	100	100	80		90	100	100	90		100	good herbicidal efficacy	80	90	80	
CCOC(=O)COc1nn(-c2cnccn2)c(-c2ccccc2)c1Br [Example I-01]		90				80		90			90	100	good herbicidal efficacy	80	80		90
